Eight molecules from article PMC5259782, “Allosteric Inhibition of Phosphoenolpyruvate Carboxylases is Determined by a Single Amino Acid Residue in Cyanobacteria” (Scientific Reports, 2017) can be followed below.

Residue numbers refer to the chain shown, from its start. Numbers in names are those of the source.

For data set [1], the target named is T1, SyPEPC (Synechocystis sp. PCC 6803, UniProt P74299).
T1 construct: gene ppc
T1 sequence (P74299 1-1034): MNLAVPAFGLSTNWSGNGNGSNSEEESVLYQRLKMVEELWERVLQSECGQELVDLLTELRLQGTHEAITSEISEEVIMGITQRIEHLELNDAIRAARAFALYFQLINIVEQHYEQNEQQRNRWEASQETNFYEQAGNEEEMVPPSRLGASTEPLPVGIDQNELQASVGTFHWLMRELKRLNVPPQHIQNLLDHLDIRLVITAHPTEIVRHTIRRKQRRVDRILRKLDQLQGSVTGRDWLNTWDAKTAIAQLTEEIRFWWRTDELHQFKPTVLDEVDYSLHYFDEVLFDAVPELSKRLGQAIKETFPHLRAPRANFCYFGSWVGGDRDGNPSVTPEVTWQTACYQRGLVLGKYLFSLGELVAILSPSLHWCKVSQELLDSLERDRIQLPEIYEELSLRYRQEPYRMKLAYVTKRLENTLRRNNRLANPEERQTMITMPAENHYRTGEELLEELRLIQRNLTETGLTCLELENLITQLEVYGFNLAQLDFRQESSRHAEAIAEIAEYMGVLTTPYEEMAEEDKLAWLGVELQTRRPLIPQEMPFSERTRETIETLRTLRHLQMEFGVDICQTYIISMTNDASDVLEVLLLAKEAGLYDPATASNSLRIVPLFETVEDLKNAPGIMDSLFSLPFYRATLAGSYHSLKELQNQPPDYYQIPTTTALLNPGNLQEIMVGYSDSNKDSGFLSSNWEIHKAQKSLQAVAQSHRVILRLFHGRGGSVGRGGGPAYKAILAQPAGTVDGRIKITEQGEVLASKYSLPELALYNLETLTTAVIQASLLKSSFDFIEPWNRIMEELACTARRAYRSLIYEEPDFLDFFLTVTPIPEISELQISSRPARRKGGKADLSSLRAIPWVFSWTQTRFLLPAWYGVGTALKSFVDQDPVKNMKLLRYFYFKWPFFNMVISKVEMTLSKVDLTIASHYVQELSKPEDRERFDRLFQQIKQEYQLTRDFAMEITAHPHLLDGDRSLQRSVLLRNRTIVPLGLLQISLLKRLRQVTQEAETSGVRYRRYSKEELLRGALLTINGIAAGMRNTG
Kind of data set: malate dehydrogenase-coupled NADH assay, residual activity. The following applies: read-out: SyPEPC activity (in vitro). The class given is biochemical. The source says: malate dehydrogenase-coupled NADH assay, residual activity on SyPEPC

Data set [2] deals with T2, SyPEPC (Synechocystis sp. PCC 6803, UniProt P74299, E954K).
T2 construct: gene ppc
T2 sequence (P74299 whole entry E954K): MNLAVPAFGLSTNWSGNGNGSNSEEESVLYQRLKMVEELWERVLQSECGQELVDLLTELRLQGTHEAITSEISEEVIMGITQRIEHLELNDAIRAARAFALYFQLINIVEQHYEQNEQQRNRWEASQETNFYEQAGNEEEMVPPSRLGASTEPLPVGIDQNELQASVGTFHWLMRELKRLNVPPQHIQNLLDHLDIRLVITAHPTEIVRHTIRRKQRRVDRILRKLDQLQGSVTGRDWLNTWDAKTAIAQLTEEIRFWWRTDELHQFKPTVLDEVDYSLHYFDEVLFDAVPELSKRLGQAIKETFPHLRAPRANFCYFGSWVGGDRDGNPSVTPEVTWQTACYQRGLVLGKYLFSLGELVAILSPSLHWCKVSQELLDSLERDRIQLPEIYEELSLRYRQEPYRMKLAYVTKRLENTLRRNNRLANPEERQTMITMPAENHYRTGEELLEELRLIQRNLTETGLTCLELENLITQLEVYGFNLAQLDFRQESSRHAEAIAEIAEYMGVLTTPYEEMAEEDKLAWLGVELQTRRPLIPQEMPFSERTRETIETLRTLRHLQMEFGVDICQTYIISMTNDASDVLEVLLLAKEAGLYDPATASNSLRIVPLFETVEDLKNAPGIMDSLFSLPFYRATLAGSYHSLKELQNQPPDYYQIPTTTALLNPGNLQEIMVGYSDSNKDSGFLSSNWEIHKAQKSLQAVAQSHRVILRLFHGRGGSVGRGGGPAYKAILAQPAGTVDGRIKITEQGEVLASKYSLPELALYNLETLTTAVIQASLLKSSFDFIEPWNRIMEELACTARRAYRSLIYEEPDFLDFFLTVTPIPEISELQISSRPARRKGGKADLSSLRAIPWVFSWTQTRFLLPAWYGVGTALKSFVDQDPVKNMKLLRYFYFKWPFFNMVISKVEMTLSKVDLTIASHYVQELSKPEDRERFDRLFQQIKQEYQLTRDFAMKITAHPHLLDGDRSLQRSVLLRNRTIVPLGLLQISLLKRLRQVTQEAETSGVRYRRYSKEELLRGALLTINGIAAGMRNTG
The description is as above. The format is biochemical. The following applies: fumarate; allosteric.

In data set [3] the target is T3, AnPEPC (Nostoc sp. PCC 7120 = FACHB-418, UniProt P28594).
T3 construct: gene ppc
Described as above. The following applies: read-out: % activity remaining at 1 mM. The class given is biochemical.

Data set [4] deals with T4, AnPEPC (Nostoc sp. PCC 7120 = FACHB-418, UniProt P28594, K946E).
T4 construct: gene ppc
T4 sequence (P28594 whole entry K946E): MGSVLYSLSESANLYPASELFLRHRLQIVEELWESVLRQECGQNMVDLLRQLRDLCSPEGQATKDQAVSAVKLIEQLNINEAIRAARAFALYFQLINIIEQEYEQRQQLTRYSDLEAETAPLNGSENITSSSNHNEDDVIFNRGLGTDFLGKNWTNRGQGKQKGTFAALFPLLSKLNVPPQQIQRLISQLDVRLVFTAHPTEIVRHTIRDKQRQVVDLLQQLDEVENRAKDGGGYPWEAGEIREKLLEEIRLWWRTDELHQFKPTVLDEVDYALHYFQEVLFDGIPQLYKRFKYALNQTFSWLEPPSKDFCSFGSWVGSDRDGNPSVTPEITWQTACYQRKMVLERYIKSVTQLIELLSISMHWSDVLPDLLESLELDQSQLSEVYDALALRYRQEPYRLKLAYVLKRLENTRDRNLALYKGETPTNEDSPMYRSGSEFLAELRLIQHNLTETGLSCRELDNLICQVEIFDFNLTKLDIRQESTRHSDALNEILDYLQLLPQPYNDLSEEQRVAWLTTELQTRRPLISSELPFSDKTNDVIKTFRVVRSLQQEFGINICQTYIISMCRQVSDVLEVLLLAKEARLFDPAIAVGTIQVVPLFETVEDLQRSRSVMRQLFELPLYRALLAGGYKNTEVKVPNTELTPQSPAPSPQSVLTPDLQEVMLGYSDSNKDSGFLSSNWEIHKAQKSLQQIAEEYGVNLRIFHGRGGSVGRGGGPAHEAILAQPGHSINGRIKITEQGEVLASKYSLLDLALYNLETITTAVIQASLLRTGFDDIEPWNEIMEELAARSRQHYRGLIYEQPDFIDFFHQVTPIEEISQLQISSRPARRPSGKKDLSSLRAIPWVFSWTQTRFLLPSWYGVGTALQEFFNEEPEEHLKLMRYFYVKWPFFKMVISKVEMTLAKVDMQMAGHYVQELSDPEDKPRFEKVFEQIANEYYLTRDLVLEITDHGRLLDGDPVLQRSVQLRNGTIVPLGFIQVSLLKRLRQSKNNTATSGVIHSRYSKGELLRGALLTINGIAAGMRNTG
The data set is described as above. The class given is biochemical. The following applies: aspartate; allosteric.

The target in data set [5] is T3, AnPEPC. The description is as above. The format is biochemical. The following applies: aspartate; allosteric.
Substrate in data set [6]: O=C(O)O
Kind of data set: purified protein. The following applies: PEP.

Substrate in data set [7]: C=C(OP(=O)(O)O)C(=O)O
As to the kind of experiment: malate dehydrogenase-coupled NADH assay (A340), Lineweaver-Burk. The class given is biochemical, Nostoc sp. PCC 7120 = FACHB-418.

Substrate in data set [8]: C=C(OP(=O)(O)O)C(=O)O
The data set is described as above. The class given is biochemical, Synechocystis sp. PCC 6803.

Usually remaining activity stands for the signal under treatment as a percentage of the control signal. What is called Km is the concentration of substrate that gives half-maximal velocity.

Regarding `O=C(O)CCC(=O)O` [succinate], in data set [1], the activity at 1000 µM was 124 ± 12.3%.

Take `O=C(O)/C=C/C(=O)O` [fumarate]: the “% activity remaining” value in data set [2] was “The inhibitory effect of fumarate was also enhanced in SyPEPC_E954K compared with SyPEPC”. Also, the activity at 1000 µM in data set [1] came out at 75 ± 9.7%.

For the molecule `O=C(O)C[C@H](O)C(=O)O` [malate], the remaining activity at 1000 µM in data set [3] is less than 30%. Besides, in data set [1], the activity at 1000 µM came out at 77.1 ± 6.3%.

As to `N[C@@H](CC(=O)O)C(=O)O` [aspartate], the activity at 1000 µM in data set [1] is 85.2 ± 10.7%. The “% activity remaining” value in data set [4] and in data set [5] was “The inhibitory effect of aspartate on AnPEPC was not altered by this amino acid substitution” throughout.

B1: AnPEPC (Nostoc sp. PCC 7120 = FACHB-418) (protein)
chain: MGSVLYSLSESANLYPASELFLRHRLQIVEELWESVLRQECGQNMVDLLRQLRDLCSPEGQATKDQAVSAVKLIEQLNINEAIRAARAFALYFQLINIIEQEYEQRQQLTRYSDLEAETAPLNGSENITSSSNHNEDDVIFNRGLGTDFLGKNWTNRGQGKQKGTFAALFPLLSKLNVPPQQIQRLISQLDVRLVFTAHPTEIVRHTIRDKQRQVVDLLQQLDEVENRAKDGGGYPWEAGEIREKLLEEIRLWWRTDELHQFKPTVLDEVDYALHYFQEVLFDGIPQLYKRFKYALNQTFSWLEPPSKDFCSFGSWVGSDRDGNPSVTPEITWQTACYQRKMVLERYIKSVTQLIELLSISMHWSDVLPDLLESLELDQSQLSEVYDALALRYRQEPYRLKLAYVLKRLENTRDRNLALYKGETPTNEDSPMYRSGSEFLAELRLIQHNLTETGLSCRELDNLICQVEIFDFNLTKLDIRQESTRHSDALNEILDYLQLLPQPYNDLSEEQRVAWLTTELQTRRPLISSELPFSDKTNDVIKTFRVVRSLQQEFGINICQTYIISMCRQVSDVLEVLLLAKEARLFDPAIAVGTIQVVPLFETVEDLQRSRSVMRQLFELPLYRALLAGGYKNTEVKVPNTELTPQSPAPSPQSVLTPDLQEVMLGYSDSNKDSGFLSSNWEIHKAQKSLQQIAEEYGVNLRIFHGRGGSVGRGGGPAHEAILAQPGHSINGRIKITEQGEVLASKYSLLDLALYNLETITTAVIQASLLRTGFDDIEPWNEIMEELAARSRQHYRGLIYEQPDFIDFFHQVTPIEEISQLQISSRPARRPSGKKDLSSLRAIPWVFSWTQTRFLLPSWYGVGTALQEFFNEEPEEHLKLMRYFYVKWPFFKMVISKVEMTLAKVDMQMAGHYVQELSDPEDKPRFEKVFEQIANEYYLTRDLVLKITDHGRLLDGDPVLQRSVQLRNGTIVPLGFIQVSLLKRLRQSKNNTATSGVIHSRYSKGELLRGALLTINGIAAGMRNTG
For the molecule B1, the Km in data set [6] (10 mM MgCl2, pH and temperature not stated (optimum pH 8.0, 35 °C), pH 8.0, 35.0 °C) was 240 µM; in data set [7] (50 mM NaHCO3, 10 mM MgCl2, pH and temperature not stated (optimum pH 8.0, 35 °C)) it was 1100 µM.

B2: AnPEPC (Nostoc sp. PCC 7120 = FACHB-418; K946E) (protein)
chain: B1 chain with K946E
In the case of B2, the Km in data set [6] (10 mM MgCl2) stood at 250 µM; in data set [7] (50 mM NaHCO3, 10 mM MgCl2), 800 µM.

B3: SyPEPC (Synechocystis sp. PCC 6803 substr. Kazusa; E954K) (protein)
chain: T1 sequence (P74299 1-1034) with E954K
With B3, the Km came out at 760 µM in data set [6] (10 mM MgCl2) and 820 µM in data set [8] (50 mM NaHCO3, 10 mM MgCl2).

B4: SyPEPC (Synechocystis sp. PCC 6803 substr. Kazusa) (protein)
chain: T1 sequence (P74299 1-1034)
Take B4: the Km in data set [6] (10 mM MgCl2, pH 7.3, 30 °C, pH 7.3, 30.0 °C) was found to be 800 µM; in data set [8] (50 mM NaHCO3, 10 mM MgCl2, pH 7.3, 30 °C), 340 µM.
